Assay results: patent US20250255847A1, “[…]s: Novel Drugs for Triple Negative Breast Cancer” (SIMMARON RSEARCH INC, priority 2024, published 2025)

Target: T1, STAT3 (pY705, pS727) (Homo sapiens, UniProt P40763)
T1 construct: endogenous in cells; host or cells: MDA-MB-468
Test: JAK/STAT phospho antibody array, phospho-STAT3 in EGF-treated MDA-MB-468 cells
Type: cell-based
Conditions: EGF (25 ng) + 5 nM compound, 6 hrs
Protocol: FIG. 5 illustrates an embodiment of the present invention and illustrates evaluations of SIM-1 and SIM-2 as STAT3 inhibitors. (A) Protein thermal shift assay was performed to assess the melting of purified recombinant STAT3 (blue; 0.5 μg protein) (Tm=melting temperature=68.88° C.). The representative melting curves were derived after adding SIM-1 (red; 4 nM), SIM-2 (purple; 8 nM), and positive control stattic (grey; 20 nM) to the STAT3 protein. The differences of melting temperature (ΔTm) between pure protein and protein+ligands are −4.54° C., −4.16° C., and 0.39° C. for SIM-1, SIM-2, and stattic (ΔTm^cut-off>2° C.). […] Each colored arrowhead represents a specific phosphoprotein, and the description was added in the bottom of array images. […] Similarly, full-length STAT5b protein melting was assessed with (J) SIM-1, (K) SIM-2, and (L) stattic. […]
Protein array. […] After that, cells were scrapped with 1×TBS, lysed with lysis buffer supplemented with protease and phosphatase inhibitor cocktail, measured for total protein concentration ([…]), diluted 5 times with assay diluent buffer and then applied along with biotin-labeled probes on the glass membrane coated with antibodies. […]
Next, the present invention evaluated if these compounds as disclosed in the present invention as small-molecule inhibitors targeting STAT3 activation, inhibited the activation of STAT3, but not other STATs. […]

T1 sequence (P40763 whole entry): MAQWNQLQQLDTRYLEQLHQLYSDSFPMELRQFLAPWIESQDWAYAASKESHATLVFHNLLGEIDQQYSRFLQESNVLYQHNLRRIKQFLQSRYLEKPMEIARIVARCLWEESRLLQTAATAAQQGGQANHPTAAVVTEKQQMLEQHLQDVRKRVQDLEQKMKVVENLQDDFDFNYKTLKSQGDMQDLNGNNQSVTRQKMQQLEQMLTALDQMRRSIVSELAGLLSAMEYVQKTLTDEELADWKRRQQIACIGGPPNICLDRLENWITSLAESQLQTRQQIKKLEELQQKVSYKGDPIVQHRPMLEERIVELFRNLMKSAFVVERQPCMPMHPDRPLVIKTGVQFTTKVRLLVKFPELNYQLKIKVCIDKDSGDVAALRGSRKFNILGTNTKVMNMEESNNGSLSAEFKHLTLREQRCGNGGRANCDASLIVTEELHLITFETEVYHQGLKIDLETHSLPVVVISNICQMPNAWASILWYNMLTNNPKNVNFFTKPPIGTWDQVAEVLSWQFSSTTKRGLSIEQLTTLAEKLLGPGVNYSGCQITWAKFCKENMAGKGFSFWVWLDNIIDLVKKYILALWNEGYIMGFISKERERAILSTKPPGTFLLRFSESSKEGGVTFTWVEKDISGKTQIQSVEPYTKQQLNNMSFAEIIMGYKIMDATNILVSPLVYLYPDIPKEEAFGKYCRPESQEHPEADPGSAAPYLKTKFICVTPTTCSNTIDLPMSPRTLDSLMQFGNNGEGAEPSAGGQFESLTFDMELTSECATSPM

O=C(O)CCC(=O)NCc1csc2ccc(Cl)cc12 [SIM-1, 4-[(5-chloro-1-benzothiophen-3-yl)methylamino]-4-oxobutanoic acid]
levels of pY705 STAT3: strongly and selectively suppressed

CCOC(=O)c1c(NC(C)=O)sc2c(Cl)c(/C=N/O)ccc12 [SIM-2, ethyl 2-acetamido-7-chloro-6-(hydroxyiminomethyl)-1-benzothiophene-3-carboxylate]
levels of pY705 STAT3: strongly and selectively suppressed
